Assay results as given in US8163927B2, “Azabicyclo [3.1.0] hexane derivatives as modulators of dopamine D3 receptors” (Glaxo Group Limited, priority 2006, dated 2012).

Target: T1, D2 receptors (Homo sapiens, UniProt P14416)
T1 construct: expressed in transfected cells
Assay: GTPS scintillation proximity assay (GTPS-SPA), CHO_D2 cell membranes
Type: biochemical
Conditions: up to the highest concentration tested in the assay (3 μM)
Procedure: Functional potency of compounds of this invention can be measured by the following GTPS scintillation proximity assay (GTPS-SPA). Cells used in the study are Chinese Hamster Ovary (CHO) Cells.
All steps are performed at 4° C. Cell membranes are prepared as follows. Cell pellets are resuspended in 10 volumes of 50 mM HEPES, 1 mM EDTA pH 7.4, using KOH.
Cells are homogenised within a glass waring blender for 2 bursts of 15 secs in 200 mls of buffer (50 mM HEPES, 1 mM leupeptin, 25 μg/ml bacitracin, 1 mM EDTA, 1 mM PMSF, 2 μM Pepstatin A). (the latter 2 reagents added as fresh ×100 and ×500 stocks respectively in ethanol). […]
The final top concentration of test drug is 3 μM in the assay and 11 points serial dilution curves 1:4 in 100% DMSO are carried out using a Biomek FX. […] The final assay cocktail (45.5 μl) is incubated at room temperature to equilibrate for 3-6 hours before reading on a ViewLux™ (613/55 filter) luminescence imager 5 min/plate.
The effect of the test drug over the basal generates fpKi values of test drug are calculated from the IC50 generated by “antagonist format” experiment, using Cheng & Prusoff equation: fKi=IC50/1+([A]/EC50) where: [A] is the concentration of the agonist Quinelorane in the assay and EC50 is the Quinelorane EC50 value obtained in the same experiment. fpKi is defined as −log fKi. […]

T1 sequence (P14416 whole entry): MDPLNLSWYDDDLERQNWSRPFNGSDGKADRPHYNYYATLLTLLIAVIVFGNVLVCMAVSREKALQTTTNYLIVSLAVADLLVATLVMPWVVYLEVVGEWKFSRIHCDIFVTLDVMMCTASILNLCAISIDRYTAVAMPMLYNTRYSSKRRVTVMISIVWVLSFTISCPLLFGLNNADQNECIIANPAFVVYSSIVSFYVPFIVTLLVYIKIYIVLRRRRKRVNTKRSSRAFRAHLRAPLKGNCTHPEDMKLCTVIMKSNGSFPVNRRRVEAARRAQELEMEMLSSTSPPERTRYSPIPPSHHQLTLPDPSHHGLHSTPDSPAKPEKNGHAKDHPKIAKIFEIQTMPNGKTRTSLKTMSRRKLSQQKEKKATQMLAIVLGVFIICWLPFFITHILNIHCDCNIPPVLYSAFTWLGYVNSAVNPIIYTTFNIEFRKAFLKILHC

activity in the D2 GTPS-SPA assay	SMILES
no activity	COc1cccn(CCCCN2C[C@@H]3C[C@]3(c3ccc(C(F)(F)F)cc3)C2)c1=O.Cl [Example E8, 3-(methyloxy)-1-(4-{(1S,5R)-1-[4-(trifluoromethyl)phenyl]-3-azabicyclo[3.1.0]hex-3-yl}butyl)-2(1H)-pyridinone hydrochloride]
no activity	Cl.N#Cc1cccn(CCCCN2C[C@@H]3C[C@]3(c3ccc(C(F)(F)F)cc3)C2)c1=O [Example E9, 2-oxo-1-(4-{(1S,5R)-1-[4-(trifluoromethyl)phenyl]-3-azabicyclo[3.1.0]hex-3-yl}butyl)-1,2-dihydro-3-pyridinecarbonitrile hydrochloride]
